Results taken from patent US20190358348A1, “CHARACTERIZATION OF BIOLOGICAL TISSUES AT A CELLULAR LEVEL USING RED AND FAR-RED FLUORESCENT DYES” (IGR-Institut Gustave Roussy, priority 2012, published 2019).
Like-named read-outs stand apart in the source and are kept apart here.

Experiments:
[1] = cited from earlier work
[2] = system: popliteal and/or inguinal lymph node
[3] = macroscopic guidance of diagnostic procedures

Compound | side effects for the patients [1, 3] | further results
CN(C)c1ccc2nc3ccc(=[N+](C)C)cc-3sc2c1 [MB, Methylene blue] | very limited side effects | time to macroscopically visible diffusion of dye to the lymph node ([2]; male, Wistar, rat, in vivo): 5 min
CCN(CC)c1ccc(C(=C2C=CC(=[N+](CC)CC)C=C2)c2cc(O)c(S(=O)(=O)[O-])cc2S(=O)(=O)[O-])cc1.[Na+] [PB, sodium patent blue V] |  | side effects for the patients ([1]; human, in vivo): very limited side effects; time to macroscopically visible diffusion of dye to the lymph node ([2]; rat, in vivo): 5 min
CC1(C)C(/C=C/C=C/C=C/C=C2\N(CCCCS(=O)(=O)O)c3ccc4ccccc4c3C2(C)C)=[N+](CCCCS(=O)(=O)[O-])c2ccc3ccccc3c21 [ICG, Indocyanine green] | very limited side effects | 
Cc1cc(O)c2c(=O)c3c(O)cc(O)c4c5c(O)cc(O)c6c(=O)c7c(O)cc(C)c8c1c2c(c34)c(c78)c65 [hypericin, Hypericin] | very limited side effects | 
Cc1cc2nc3ccc(N(C)C)cc3[s+]c2cc1N.[Cl-] [TB, Toluidine Blue] | very limited side effects | time to macroscopically visible diffusion of dye to the lymph node ([2]; sub-cutaneous injection, 100 μL into footpad): 5 min
